Measurements taken from patent US20080299130A1, “Methods And Compositions For The Treatment Of Ocular Neovascularization” (UNIVERSITY OF KENTUCKY RESEARCH FOUNDATION, priority 2004, published 2008).

Test system: laser-induced CNV
Assay: Laser-induced choroidal neovascularization (CNV) volume after intravitreous injection
Type: in vivo, mouse
Protocol: Laser photocoagulation (532 nm, 200 mW, 100 ms, 75 μm; OcuLight GL, Iridex, Mountain View, Calif.) was performed on both eyes of each animal by a single individual masked to genetic identity. Laser spots (volume studies: 3/eye; angiography: 4/eye; protein analyses/flow cytometry: 12/eye) were applied in a standardized fashion around the optic nerve, using a slit lamp delivery system and a cover slip as a contact lens. The morphological endpoint of the laser injury was the appearance of a cavitation bubble, a sign thought to correlate with the disruption of Bruch's membrane.
Two weeks after laser injury, eyes were enucleated and fixed with 4% paraformaldehyde (PFA) for 30 minutes at 4° C. […]
Flat mounts were examined with a scanning laser confocal microscope (TCS SP, Leica, Heidelberg, Germany). […] The area of CNV-related fluorescence was measured by computerized image analysis with the microscope software (TCS SP; Leica). […]
Because the probability of each laser lesion developing CNV is influenced by the group to which it belongs, the mouse, the eye, and the laser spot, the mean lesion volumes were compared using a linear mixed model with a split plot repeated measures design, as previously described (Sakurai, et al., (2003), Invest Opthalmol Vis Sci 44, 2743-2749; Sakurai et al., (2003), Invest Opthalmol Vis Sci 44, 3578.3585). […] Statistical significance was determined at the 0.05 level. […]

With “Recombinant MCP-1: recombinant mouse MCP-1 protein (Ccl-2)” the “Effect on CNV” value (MCP-1 knock out mice (FIG. 5, FIG. 6)) was “restores CNV” and the “CNV restored, % of control” value (recombinant MCP-1 0.55 ng given with anti-VEGF-A antibody, n=6, P=0.82) was 95.7±13.0 % of control.
